Reference: patent publication US11696918B2 (priority 2019, dated 2023)
Where two headings read alike, the source gives them in different places.

Columns and labels:
[1] = for quantifiable in at least 1 of 3 mice through: PCV
[2] = in vivo; details: female, BALB/c, mouse
[3] = system: HSV-2 MS strain; format: in vivo, BALB/c mice; details: for Survival (surviving/total mice): 28 days; for Clinical Scores Overall Mean: daily vaginal clinical score, 4-point system of Table 4
[4] = system: HSV-2; experiment: qPCR of HSV DNA copy number in dorsal root ganglia at day 28; format: in vivo, BALB/c mice
[5] = single dose
[6] = cited from earlier work
[7] = system: herpes simplex virus; details: long-term suppressive treatment; cited from earlier work
[8] = cited from earlier work; remark: listed apart in the source
[9] = system: HSV infected cells; details: in HSV infected cells; cited from earlier work
[10] = Group 1 HSV-2 A 125 mg/kg PO daily
[11] = Group 2: Valcyclovir 125 mg/kg po
[12] = Group 2 HSV-2 B 63 mg/kg PO daily

With `Nc1nc2c(ncn2CCC(CO)CO)c(=O)[nH]1` [PCV, penciclovir] the t1/2 ([1]; Group 3: 63 mg/kg FCV, po, single dose, plasma) was 0.97 h, the “quantifiable in at least 1 of 3 mice through” value (“quantifiable” for short) ([1]; Group 1: 125 mg/kg VACV + 63 mg/kg FCV iv) was 24 h and the “quantifiable” value ([1]; Group 5: 63 mg/kg VACV + 32 mg/kg FCV po) was 24 h. The “quantifiable” value ([1]; Group 8: 500 mg/kg VACV + 250 mg/kg FCV po) was 24 h, the “AUClast Mean” value ([1]; female, BALB/c, mouse, in vivo, po, 63 mg/kg) was 10609 ng·h/mL and the AUC(0-inf) ([2]; iv, 63 mg/kg, AUCinf) was 15200 ng·h/mL. For the same compound, the AUC(0-t) ([2]; iv, 63 mg/kg, AUClast) was 15100 ± 2600 ng·h/mL, the AUC(0-t) ([2]; iv, 63 mg/kg, AUClast Mean) was 15100 ng·h/mL and the Cmax ([2]; iv, 63 mg/kg, Cmax) was 8800 ng/mL. It also gave a Cmax ([2]; iv, 63 mg/kg, Cmax Mean) of 8800 ng/mL, a Tmax ([2]; iv, 63 mg/kg, Tmax, Group 1: 125 mg/kg VACV and 63 mg/kg FCV, iv, single dose, plasma) of 0.083 h and a half-life ([2]; iv, 63 mg/kg, t1/2, Group 1: 125 mg/kg VACV and 63 mg/kg FCV, iv, single dose, plasma) of 1.29 h. It also gave a half-life ([2]; iv, 63 mg/kg, t1/2, plasma PCV, Group 1: 125 mg/kg VACV and 63 mg/kg FCV iv) of 1.29 h, an AUC(0-inf) ([2]; po, 16 mg/kg, AUCinf) of 6200 ng·h/mL and an AUC(0-t) ([2]; po, 16 mg/kg, AUClast Mean) of 6100 ng·h/mL. For the same compound, the Cmax ([2]; po, 16 mg/kg, Cmax Mean) was 4590 ng/mL, the Tmax ([2]; po, 16 mg/kg, Tmax) was 0.5 h and the half-life ([2]; po, 16 mg/kg, t1/2) was 1.89 h. It also gave an AUC(0-inf) ([2]; po, 32 mg/kg, AUCinf) of 5140 ng·h/mL, an AUC(0-t) ([2]; po, 32 mg/kg, AUClast Mean) of 5010 ng·h/mL and a Cmax ([2]; po, 32 mg/kg, Cmax Mean) of 3150 ng/mL. For the same compound, the Tmax ([2]; po, 32 mg/kg, Tmax) was 0.5 h, the half-life ([2]; po, 32 mg/kg, t1/2) was 2.34 h and the AUC(0-inf) ([2]; po, 63 mg/kg) was 11300 ng·h/mL. For the same compound, the AUC(0-t) ([2]; po, 63 mg/kg) was 10600 ± 727 ng·h/mL, the Cmax ([2]; po, 63 mg/kg) was 8120 ± 565 ng/mL and the Tmax ([2]; po, 63 mg/kg) was 0.25 h. The half-life ([2]; po, 63 mg/kg) was 0.97 h, the AUC(0-inf) ([2]; po, 63 mg/kg, AUCinf) was 19200 ng·h/mL and the AUC(0-t) ([2]; po, 63 mg/kg, AUClast Mean) was 18400 ng·h/mL. It also gave a Cmax ([2]; po, 63 mg/kg, Cmax Mean) of 7100 ng/mL, a Tmax ([2]; po, 63 mg/kg, Tmax) of 0.5 h and a half-life ([2]; po, 63 mg/kg, t1/2) of 2.34 h. The AUC(0-inf) ([2]; po, 125 mg/kg, AUCinf) was 50900 ng·h/mL, the AUC(0-t) ([2]; po, 125 mg/kg, AUClast Mean) was 50200 ng·h/mL and the Cmax ([2]; po, 125 mg/kg, Cmax Mean) was 16900 ng/mL. The half-life ([2]; po, 125 mg/kg, t1/2) was 1.31 h, the AUC(0-inf) ([2]; po, AUCinf) was 85500 ng·h/mL and the AUC(0-t) ([2]; po, AUClast Mean) was 84500 ng·h/mL. It also gave a Cmax ([2]; po, Cmax Mean) of 31200 ng/mL, a Tmax ([2]; po, Tmax, Group 8: VACV 500 mg/kg and FCV 250 mg/kg in combination, po, plasma) of 1 h and a half-life ([2]; po, t1/2, Group 8: VACV 500 mg/kg and FCV 250 mg/kg in combination, po, plasma) of 4.3 h. The half-life ([2]; po, t1/2, plasma PCV, Group 8: 500 mg/kg VACV + 250 mg/kg FCV po) was 4.3 h.

For `CC(C)[C@H](N)C(=O)OCCOCn1cnc2c(=O)[nH]c(N)nc21` [A, Valacyclovir], the “clinical score index (fraction of mice with a clinical score)” value ([3]; Group 1 (A alone), A 125 mg/kg) was 0.5, the “Clinical (mice that had a clinical score/total)” value [3, 10] was 5/10 and the “Hair loss (mice that had hair loss/total)” value [3, 10] was 8/10. For the same compound, the “Illness (mice that had an illness score/total)” value [3, 10] was 10/10, the “Survival (surviving/total mice)” value [3, 10] was 10/10 and the “Clinical Scores Overall Mean” value [3, 10] was 0.07413. The “Number Undetectable <3 (qPCR copy number/rxn)” value [4, 10] was 5, the “qPCR Copy number/rxn Overall Mean” value [4, 10] was 4.92 Copy number/rxn and the “Clinical Observations: Dead (animals)” value [5, 11] was 0. The “Clinical Observations: Hypoactivity (animals)” value [5, 11] was 0, the “Clinical Observations: Normal (animals)” value [5, 11] was 12 and the “Clinical Observations: Ruffled Fur (animals)” value [5, 11] was 0. The “Clinical Observations: Shoveling (animals)” value [5, 11] was 0, the “Clinical Observations: Squinting (animals)” value [5, 11] was 0 and the protein binding [6] was under 15%. For the same compound, the “reduction of transmission risk” value [7] was 46%, the half-life ([8]; approximately) was 2.5 to 3.4 h and the “Mean AUC” value ([8]; in vivo) was 2270 to 19620 ng·h/mL. The “time to reach maximum concentration” value ([8]; in vivo) was 1.6 to 1.9 h.

With `CC(=O)OCC(CCn1cnc2cnc(N)nc21)COC(C)=O` [B, Famciclovir] the “clinical score index (fraction of mice with a clinical score)” value ([3]; Group 2 (B alone), B 63 mg/kg) was 0.8, the “Clinical (mice that had a clinical score/total)” value [3, 12] was 8/10 and the “Hair loss (mice that had hair loss/total)” value [3, 12] was 6/10. For the same compound, the “Illness (mice that had an illness score/total)” value [3, 12] was 9/10, the “Survival (surviving/total mice)” value [3, 12] was 9/10 and the “Clinical Scores Overall Mean” value [3, 12] was 0.3125. The “Number Undetectable <3 (qPCR copy number/rxn)” value [4, 12] was 2, the “qPCR Copy number/rxn Overall Mean” value [4, 12] was 28.32 Copy number/rxn and the “Clinical Observations: Dead (animals)” value ([5]; Group 3: Famcyclovir 63 mg/kg po, died during first blood collection) was 1. For the same compound, the “Clinical Observations: Dead (animals)” value ([5]; Group 3: Famcyclovir 63 mg/kg po, died during first blood collection, listed as FCV) was “another animal died”, the bioavailability ([8]; in vivo) was 77% and the plasma half-life ([8]; in vivo) was 2 to 2.5 h. The “time to reach maximum concentration” value ([8]; in vivo) was 0.5 to 0.75 h and the intracellular half-life [9] was 10 to 20 h.
